Key:
[1] = system: OCI-AML3; experiment: Cell growth, viable cell count by trypan blue exclusion; format: cell-based, human; settings: OCI-AML3, 5 µM, at 48 and 72 h
[2] = system: cleaved-PARP; experiment: Western blot of apoptosis marker in AML cell lines; format: cell-based, human; settings: 5 µM, 48 h
Description: Immunoblotting was conducted as described previously. Briefly, fresh cell pellets (0.2–0.5 × 10^6/test for AML cell lines) were dissolved directly in 30–60 μL of Laemmli sample buffer 1× (1.5 M Tris-HCl pH 6.8, glycerol, β-mercaptoethanol, SDS, bromophenol blue) and boiled at 95 °C for 5 min. The proteins were separated by SDS-polyacrylamide gel electrophoresis (SDS-PAGE) on Precast 4–15% gradient gels (Biorad, Hercules, CA, USA) transferred onto nitrocellulose membranes (GE Healthcare, Piscataway, NJ, USA) and probed with specific primary antibodies followed by horseradish peroxidase-conjugated secondary antibodies (GE Healthcare Lifesciences). The polypeptides were visualized using enhanced chemiluminescence (Luminata Crescendo, Merck Millipore, Burlington, MA, USA) according to the manufacturer’s instructions. The bands were visualized using the Biorad Chemidoc and the images were processed using the image lab software (Biorad) and Adobe Photoshop (Ps CC 2019). β-actin expression levels were used as a control for protein loading, as indicated. […]

[3] = UV-VIS titration assay with increasing MgCl2; format: physicochemical; settings: 100 µM compound, up to 10 mM MgCl2
Description: The potential ability of T126 to chelate Mg^2+ ions was evaluated by spectrophotometric methods using a T70+ UV-Vis Spectrometer (PG Instruments, Leicestershire, UK) and a quartz cuvette with a 1 cm optical path. MgCl2. 5H2O 1M solution was prepared from powder (VWR International, Milan, Italy). The compound T126 was dissolved in DMSO to a final concentration of 10 mM and diluted with a milliQ water/DMSO mixture to a final concentration of 100 µM (4% DMSO). The obtained solution was placed in a cuvette and the UV-Vis spectra was recorded between 200 and 500 nm using water milliQ (with 4% DMSO) as reference. Thereafter, small volumes of MgCl2 aqueous solution were added both in the sample and in the reference cuvettes to obtain a series of solutions containing increasing concentrations of MgCl2 (1.25, 2.5, 5 and 10 mM), carefully pipetted for mixing, and the UV-Vis spectra were repeated. Each experiment was performed in triplicate.

[4] = system: E4-BP1 phosphorylation at site S65; experiment: Western blot of AKT signaling pathway in AML cell lines; format: cell-based, human; settings: increasing concentrations (0.5 and 5 µM), 24 and 48 h, OCI-AML3, IMS-M2, OCI-AML2
Description: (§1) Immunoblotting was conducted as described previously. Briefly, fresh cell pellets (0.2–0.5 × 10^6/test for AML cell lines) were dissolved directly in 30–60 μL of Laemmli sample buffer 1× (1.5 M Tris-HCl pH 6.8, glycerol, β-mercaptoethanol, SDS, bromophenol blue) and boiled at 95 °C for 5 min. The proteins were separated by SDS-polyacrylamide gel electrophoresis (SDS-PAGE) on Precast 4–15% gradient gels (Biorad, Hercules, CA, USA) transferred onto nitrocellulose membranes (GE Healthcare, Piscataway, NJ, USA) and probed with specific primary antibodies followed by horseradish peroxidase-conjugated secondary antibodies (GE Healthcare Lifesciences). The polypeptides were visualized using enhanced chemiluminescence (Luminata Crescendo, Merck Millipore, Burlington, MA, USA) according to the manufacturer’s instructions. The bands were visualized using the Biorad Chemidoc and the images were processed using the image lab software (Biorad) and Adobe Photoshop (Ps CC 2019). β-actin expression levels were used as a control for protein loading, as indicated.
(§2) The primary antibodies used for western blot analyses are the following: mouse monoclonal anti-human β-actin (Clone AC-15; dilution 1:5000) from Sigma Aldrich (St. Louis, MO, USA); rabbit monoclonal anti-human Cleaved poly (ADP-ribose) polymerase (c-PARP) (Clone Asp 214; dilution 1:1000); rabbit monoclonal phospho-Akt (Ser473) (clone D9E, dilution 1.500); rabbit polyclonal phospho-mTOR (Ser2448) (dilution 1:500); rabbit polyclonal phospho-4E-BP1 (Ser65) (dilution 1:500); rabbit monoclonal Akt1 (clone D9R8K, dilution 1:500); rabbit polyclonal 4E-BP1 (dilution 1:500); and rabbit polyclonal mTOR (dilution 1:500), all from Cell Signaling (Cell Signaling Technology, Inc., Danvers, MA, USA).

[5] = system: phospho-mTOR, at site S2448; experiment: as above; format: cell-based, human; settings: increasing concentrations (0.5 and 5 µM), 24 and 48 h, OCI-AML3, IMS-M2, OCI-AML2
Description: as §1, §2

[6] = system: phospho-AKT, at site S473; experiment: as above; format: cell-based, human
Description: as §1, §2

[7] = Intrinsic fluorescence assay; format: physicochemical; settings: excitation/emission 485–535 nm, AKT1 assay buffer, 2 h 37 °C
Description: Compound T126 was serially diluted in 384-well black plates with Hepes 100 mM, DMSO 4%, Brij 0.003%, Tween 20 0.004%, MgCl2 10 mM, at a pH = 7.5 and incubated for 2 h at 37 °C. After the incubation time the intensity of fluorescence (λexc: 485 nm; λemm: 535 nm) was detected in a Tecan M1000 Pro.

[8] = system: IMS-M2; experiment: Apoptosis by flow cytometry (Annexin V/7AAD); format: cell-based, human; settings: IMS-M2, 5 µM, 48 h
Description: (§3) The cell apoptosis was assessed using Annexin V APC- or FITC-conjugated antibodies and counterstained with Propidium Iodide (PI) or 7AAD for the detection of necrotic cells (Becton Dickinson, Franklin Lakes, NJ, USA), according to the manufacturer’s protocol. The data acquisition and analysis were done with a FACS Canto II flow cytometer and data were acquired and analyzed using Diva software (Becton Dickinson, Franklin Lakes, NJ, USA).

[9] = system: OCI-AML2; experiment: Apoptosis by flow cytometry (Annexin V/7AAD); format: cell-based, human; settings: OCI-AML2, 5 µM, 48 h
Description: as §3

[10] = system: OCI-AML3; experiment: Apoptosis by flow cytometry (Annexin V/7AAD); format: cell-based, human; settings: OCI-AML3, 5 µM, 48 h
Description: as §3

[11] = system: IMS-M2; experiment: Cell growth, viable cell count by trypan blue exclusion; format: cell-based, human; settings: IMS-M2, 5 µM, at 48 and 72 h
[12] = target: T1, AKT1 (Homo sapiens, UniProt P31749); experiment: AKT1 enzymatic inhibition assay; format: biochemical
T1 construct: purchased Kinase Logistics, Meyn, Germany #Aps 01-101
Description: The studied compounds, including the standard inhibitor Staurosporine (Thermo-Fisher , Madrid, Spain, Invitrogen BP2541), were incubated with 3 nM AKT1 (#Aps 01-101; Kinase Logistics, Meyn, Germany) and 1.5 μM Profiler Pro peptide 6 (#760350; Perkin Elmer, Tres Cantos, Madrid, Spain) in the presence of different concentrations of Adenosine 5′triphosphate disodium salt, ATP (#A2383; Sigma Aldrich, Madrid, Spain) in a 384-well Microplate (#781076; Greiner, San Sebastián de los Reyes, Madrid, Spain). The reaction rate was calculated from kinetic measurements carried out measured in a Caliper EzReader LabChip 3000 (Caliper, Hopkinton, MA, USA) reader with samples taken each 10 min for a total time of 60 min. The percentage of substrate conversion rate was plotted versus the ATP concentration. The data was analyzed by non-linear fitting with GraphPad Prism by employing the Michaelis–Menten equation. The buffer assay used in the inhibition hAKT1 assay is: Hepes 100 mM, DMSO 4%, Brij 0.003%, Tween 20 0.004%, MgCl2 10 mM, with a pH = 7.5.
The Ki values were calculated by employing the GraphPad Prism equations.

T1 sequence (P31749 whole entry): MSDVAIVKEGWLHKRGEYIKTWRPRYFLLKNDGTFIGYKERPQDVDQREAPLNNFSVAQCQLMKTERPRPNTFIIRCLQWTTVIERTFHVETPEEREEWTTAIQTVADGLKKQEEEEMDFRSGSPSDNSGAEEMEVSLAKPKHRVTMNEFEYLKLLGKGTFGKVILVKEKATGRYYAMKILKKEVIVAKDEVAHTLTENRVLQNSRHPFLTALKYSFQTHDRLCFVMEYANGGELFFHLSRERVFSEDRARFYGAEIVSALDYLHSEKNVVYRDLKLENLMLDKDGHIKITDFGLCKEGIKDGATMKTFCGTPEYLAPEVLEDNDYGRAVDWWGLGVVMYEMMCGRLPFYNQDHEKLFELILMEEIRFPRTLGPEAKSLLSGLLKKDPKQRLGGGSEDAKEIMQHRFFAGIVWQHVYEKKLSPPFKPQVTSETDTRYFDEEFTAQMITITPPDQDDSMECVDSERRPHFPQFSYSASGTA

In the case of O=c1[nH]c(-c2ccc(O)c(O)c2)nc2sc3c(c12)CCCC3 [T126], the cell growth inhibition [1] is reported as “significant cell growth inhibition”, the “cleaved-PARP (marker of apoptosis)” value [2] is reported as “detected” and the “ability to chelate Mg^2+ ions” value [3] is reported as “inability of T126 to chelate Mg^2+ ions”. For the same compound, the “phosphorylation of 4E-BP1 (S65)” value [4] was “reduction of its phosphorylation levels”, the “phosphorylation of mTOR (S2448)” value [5] was “decreased phosphorylation” and the “inhibition of p-AKT” value ([6]; OCI-AML3, 4 h, 1 and 2.5 µM) was “inhibition of p-AKT was already observed”. For the same compound, the “phosphorylation of AKT1 (S473)” value ([6]; increasing concentrations (0.5 and 5 µM), 24 and 48 h, OCI-AML3, IMS-M2, OCI-AML2) was “decreased phosphorylation”, the intrinsic fluorescence [7] was “not fluorescent” and the induction of apoptosis [8] was “significant level of apoptosis”. The induction of apoptosis [9] was “significant level of apoptosis”, the induction of apoptosis [10] was “significant level of apoptosis” and the cell growth inhibition [11] was “significant cell growth inhibition”. For the same compound, the IC50 [12] was 1990 ± 110 nM, the inhibition at 10 µM ([12]; 10 μM compound, read-out: %inh (percentage of inhibition of AKT1 activity)) was 87% and the Ki ([12]; read-out: Ki (AKT1 inhibition constant)) was 410 nM.

From publication PMC9698716, “From Serendipity to Rational Identification of the 5,6,7,8-Tetrahydrobenzo[4,5]thieno[2,3-d]pyrimidin-4(3H)-one Core as a New Chemotype of AKT1 Inhibitors for Acute Myeloid Leukemia” (Pharmaceutics, 2022)
